Experimental data: ChEMBL document CHEMBL5380869, “Discovery of an Oral, Beyond-Rule-of-Five Mcl-1 Protein-Protein Interaction Modulator with the Potential of Treating Hematological Malignancies” (J Med Chem, 2023)
In brackets after ≈: the same amount, converted by molar mass. Activity calls are given as the source filed them. The calls are words filed in the database; no cut-off is given here.

Legend:
[1] = Inhibition of terbium-labelled Mcl-1 (unknown origin)/Bim BH3 peptide (H3N-(C/Cy5Mal)-WIAQELRRIGDEFN-OH) (unknown origin) interaction assessed as displacement of Cy5-labeled Bim BH3 peptide by TR-HTRF assay
[2] = test system: MOLP-8; assay: Induction apoptosis in human MOLP8 cells assessed as cell killing measured after 2 hrs by Caspase-Glo 3/7 Assay; type: functional, cell-based; details: MOLP-8, 2 h
[3] = Thermodynamic (equilibrium) solubility of the compound measured after 3 days agitation in pH 2 buffer by LC-MS/MS analysis; type: physicochemical; details: time 3 day, read-out: Therm_solubility
[4] = Thermodynamic (equilibrium) solubility of the compound measured after 3 days agitation in pH 7 buffer by LC-MS/MS analysis; type: physicochemical; details: time 3 day, read-out: Therm_solubility
[5] = Lipophilicity, CHI logD of compound at pH 7.4 by UPLC-TOF analysis; type: physicochemical; details: buffer
[6] = Intrinsic clearance in human liver microsomes measured upto 60 mins by LC-MS/MS analysis; type: ADME, Microsome; details: read-out: CLH
[7] = Intrinsic clearance in mouse liver microsomes measured upto 60 mins by LC-MS/MS analysis; type: ADME, Microsome; details: read-out: CLH
[8] = Cardiotoxicity risk in human iPSC-CM assessed as calcium transients at 1 uM by CTCM assay; type: toxicity, cell-based
[9] = Cardiotoxicity risk in human iPSC-CM assessed as calcium transients at 3 uM by CTCM assay; type: toxicity, cell-based
[10] = Hepatic intrinsic clearance in human hepatocytes measured per 10^6 cells at 1 uM measured upto 120 mins by LC-MS/MS analysis; type: ADME, cell-based, Hepatocyte; details: read-out: CLH
[11] = Hepatic intrinsic clearance in Swiss CD-1 mouse hepatocytes measured per 10^6 cells at 1 uM measured upto 120 mins by LC-MS/MS analysis; type: ADME, cell-based, Hepatocyte; details: read-out: CLH
[12] = Metabolic stability in human hepatocytes assessed as half life at 1 uM measured by LC-MS/MS analysis; type: ADME, cell-based, Hepatocyte
[13] = Metabolic stability in Swiss CD-1 mouse hepatocytes assessed as half life at 1 uM measured by LC-MS/MS analysis; type: ADME, cell-based, Hepatocyte
[14] = target: T1, Cytochrome P450 2C8 (Homo sapiens, UniProt P10632); assay: Inhibition of human CYP2C8 assessed as fluorescent metabolites by CYP450 inhibition assay; type: ADME
T1 sequence (P10632 whole entry): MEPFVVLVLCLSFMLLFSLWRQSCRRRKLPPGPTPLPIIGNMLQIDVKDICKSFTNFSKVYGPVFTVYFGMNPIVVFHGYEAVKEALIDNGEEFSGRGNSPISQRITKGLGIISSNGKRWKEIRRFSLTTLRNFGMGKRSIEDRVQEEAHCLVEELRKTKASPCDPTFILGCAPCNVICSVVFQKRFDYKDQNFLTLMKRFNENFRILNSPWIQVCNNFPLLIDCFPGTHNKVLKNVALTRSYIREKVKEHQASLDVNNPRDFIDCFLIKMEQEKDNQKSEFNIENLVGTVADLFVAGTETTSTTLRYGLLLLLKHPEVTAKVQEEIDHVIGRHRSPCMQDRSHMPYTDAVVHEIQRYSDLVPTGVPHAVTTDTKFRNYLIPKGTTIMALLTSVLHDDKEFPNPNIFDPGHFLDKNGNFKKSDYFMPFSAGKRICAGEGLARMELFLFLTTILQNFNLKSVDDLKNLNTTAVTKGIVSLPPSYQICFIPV

[15] = target: T2, CYP3A4 (Homo sapiens, UniProt P08684); assay: Induction of human CYP3A4 assessed as fold change at 10 uM by CYP450 induction assay; type: ADME; details: read-out: FC
T2 sequence (P08684 whole entry): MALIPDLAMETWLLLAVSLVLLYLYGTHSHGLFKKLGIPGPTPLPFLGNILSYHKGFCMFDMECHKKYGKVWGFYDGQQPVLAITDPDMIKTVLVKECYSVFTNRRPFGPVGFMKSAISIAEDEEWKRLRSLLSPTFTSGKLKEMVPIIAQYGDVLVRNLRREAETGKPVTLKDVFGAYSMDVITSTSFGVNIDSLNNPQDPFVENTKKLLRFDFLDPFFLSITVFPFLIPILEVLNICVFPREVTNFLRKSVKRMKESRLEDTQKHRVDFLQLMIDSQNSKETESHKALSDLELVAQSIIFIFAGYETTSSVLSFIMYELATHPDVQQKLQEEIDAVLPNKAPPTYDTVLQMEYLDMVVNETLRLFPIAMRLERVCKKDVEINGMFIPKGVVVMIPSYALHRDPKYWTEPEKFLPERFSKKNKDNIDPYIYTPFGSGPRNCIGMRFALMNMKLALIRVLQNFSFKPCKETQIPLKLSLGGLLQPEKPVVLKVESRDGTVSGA

[16] = target: T3, CYP1A2 (Homo sapiens, UniProt P05177); assay: Induction of human CYP1A2 assessed as fold change at 1 uM by CYP450 induction assay; type: ADME; details: read-out: FC
T3 sequence (P05177 whole entry): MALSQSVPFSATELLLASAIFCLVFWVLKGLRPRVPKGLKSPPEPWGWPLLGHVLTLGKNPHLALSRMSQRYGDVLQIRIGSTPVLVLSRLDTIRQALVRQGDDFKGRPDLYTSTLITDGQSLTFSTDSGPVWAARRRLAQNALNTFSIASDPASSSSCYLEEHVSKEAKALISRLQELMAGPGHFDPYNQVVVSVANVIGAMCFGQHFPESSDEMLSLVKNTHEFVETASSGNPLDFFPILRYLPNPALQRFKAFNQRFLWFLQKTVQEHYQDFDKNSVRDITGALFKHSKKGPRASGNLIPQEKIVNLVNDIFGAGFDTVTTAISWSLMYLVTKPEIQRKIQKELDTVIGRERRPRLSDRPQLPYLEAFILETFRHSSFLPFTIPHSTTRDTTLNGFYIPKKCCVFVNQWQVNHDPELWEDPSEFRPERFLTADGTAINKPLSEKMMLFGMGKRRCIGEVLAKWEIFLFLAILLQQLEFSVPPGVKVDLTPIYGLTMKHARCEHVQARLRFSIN

[17] = target: T2, CYP3A4; assay: Induction of human CYP3A4 assessed as fold change at 1 uM by CYP450 induction assay; type: ADME; details: read-out: FC
[18] = Fraction unbound in human plasma at 5 uM incubated for 4.5 hrs by rapid equilibrium dialysis; type: ADME, cell-free
[19] = Fraction unbound in mouse plasma at 5 uM incubated for 4.5 hrs by rapid equilibrium dialysis; type: ADME, cell-free
[20] = Cardiotoxicity risk in human iPSC-CM assessed as calcium transients at 0.1 uM by CTCM assay; type: toxicity, cell-based
[21] = Cardiotoxicity risk in human iPSC-CM assessed as calcium transients at 0.3 uM by CTCM assay; type: toxicity, cell-based
[22] = target: T4, Cytochrome P450 1A2 (Homo sapiens, UniProt P05177); assay: Inhibition of human CYP1A2 assessed as fluorescent metabolites by CYP450 inhibition assay; type: ADME
T4 sequence (P05177 whole entry): T3 sequence (P05177 whole entry)

[23] = target: Cytochrome P450 2C19 (Homo sapiens, UniProt P33261); assay: Inhibition of human CYP2C19 assessed as fluorescent metabolites by CYP450 inhibition assay; type: ADME
Cytochrome P450 2C19, sequence (P33261 whole entry): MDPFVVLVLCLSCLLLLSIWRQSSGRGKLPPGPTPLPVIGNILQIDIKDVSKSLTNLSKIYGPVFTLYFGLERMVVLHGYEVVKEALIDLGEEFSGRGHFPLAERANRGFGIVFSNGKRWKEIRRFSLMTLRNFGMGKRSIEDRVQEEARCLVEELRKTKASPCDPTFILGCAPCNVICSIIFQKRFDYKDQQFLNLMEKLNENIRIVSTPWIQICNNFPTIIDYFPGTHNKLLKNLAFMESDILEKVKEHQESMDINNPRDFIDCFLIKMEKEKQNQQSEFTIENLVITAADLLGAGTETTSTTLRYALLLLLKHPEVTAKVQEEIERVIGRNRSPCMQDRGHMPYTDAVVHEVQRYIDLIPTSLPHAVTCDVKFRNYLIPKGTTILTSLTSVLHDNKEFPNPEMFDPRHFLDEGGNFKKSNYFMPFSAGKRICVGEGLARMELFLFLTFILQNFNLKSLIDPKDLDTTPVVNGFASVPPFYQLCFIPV

[24] = target: Cytochrome P450 2C9 (Homo sapiens, UniProt P11712); assay: Inhibition of human CYP2C9 assessed as fluorescent metabolites by CYP450 inhibition assay; type: ADME
Cytochrome P450 2C9, sequence (P11712 whole entry): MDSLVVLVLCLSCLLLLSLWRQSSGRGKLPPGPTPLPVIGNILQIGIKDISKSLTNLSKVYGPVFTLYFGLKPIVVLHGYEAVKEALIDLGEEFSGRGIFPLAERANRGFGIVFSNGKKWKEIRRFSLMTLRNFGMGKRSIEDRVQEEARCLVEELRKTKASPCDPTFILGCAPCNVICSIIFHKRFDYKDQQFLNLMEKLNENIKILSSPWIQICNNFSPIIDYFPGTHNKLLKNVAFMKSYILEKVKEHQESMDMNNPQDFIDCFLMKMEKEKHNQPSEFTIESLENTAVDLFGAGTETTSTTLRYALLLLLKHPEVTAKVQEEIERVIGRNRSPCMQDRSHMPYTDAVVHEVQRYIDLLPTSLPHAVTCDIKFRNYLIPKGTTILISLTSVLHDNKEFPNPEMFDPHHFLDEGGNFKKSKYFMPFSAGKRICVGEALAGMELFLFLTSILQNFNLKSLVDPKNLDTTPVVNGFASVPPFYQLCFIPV

[25] = target: Cytochrome P450 2D6 (Homo sapiens, UniProt P10635); assay: Inhibition of human CYP2D6 assessed as fluorescent metabolites by CYP450 inhibition assay; type: ADME
Cytochrome P450 2D6, sequence (P10635 whole entry): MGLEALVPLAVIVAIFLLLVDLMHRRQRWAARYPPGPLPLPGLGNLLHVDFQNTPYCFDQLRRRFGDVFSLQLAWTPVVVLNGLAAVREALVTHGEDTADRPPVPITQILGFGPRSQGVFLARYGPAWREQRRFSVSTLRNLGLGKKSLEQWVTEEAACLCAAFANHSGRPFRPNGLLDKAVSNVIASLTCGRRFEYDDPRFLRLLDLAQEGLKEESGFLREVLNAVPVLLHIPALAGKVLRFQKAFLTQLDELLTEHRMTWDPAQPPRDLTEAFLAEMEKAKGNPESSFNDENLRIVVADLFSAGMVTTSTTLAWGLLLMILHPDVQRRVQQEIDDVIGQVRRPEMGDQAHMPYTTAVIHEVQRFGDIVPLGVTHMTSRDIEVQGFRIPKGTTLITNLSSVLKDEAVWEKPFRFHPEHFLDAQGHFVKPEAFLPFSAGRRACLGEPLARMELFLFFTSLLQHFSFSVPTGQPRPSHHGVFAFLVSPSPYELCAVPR

[26] = Half life in CD1 mouse at 1 mg/kg, iv administered as bolus dose; type: ADME, organism-based; details: in vivo
[27] = Initial plasma concentration in CD1 mouse at 1 mg/kg, iv administered as bolus dose; type: ADME, organism-based
[28] = Volume of distribution at steady state in CD1 mouse at 1 mg/kg, iv administered as bolus dose; type: ADME, organism-based; details: in vivo, read-out: Vdss
[29] = Clearance in CD1 mouse at 1 mg/kg, iv administered as bolus dose; type: ADME, organism-based; details: in vivo
[30] = Tmax in CD1 mouse at 5 mg/kg, po administered as bolus dose; type: ADME, organism-based; details: in vivo
[31] = Cmax in CD1 mouse at 5 mg/kg, po administered as bolus dose; type: ADME, organism-based; parameters: dose 5 mg/kg, route po; details: in vivo
[32] = AUClast in CD1 mouse at 5 mg/kg, po administered as bolus dose; type: ADME, organism-based; parameters: dose 5 mg/kg, route po; details: in vivo
[33] = Oral bioavailability in CD1 mouse at 5 mg/kg administered as bolus dose; type: ADME, organism-based; details: in vivo
[34] = Fraction absorbed in CD1 mouse at 5 mg/kg, po administered as bolus dose; type: ADME, organism-based; details: in vivo, read-out: Fabs
[35] = test system: MOLM-13; assay: In vivo inhibition of Mcl-1 in human MOLM-13 cells sc implanted in NSG mouse assessed as disruption of Mcl-1/Bak complex in tumor at 10 mg/kg, po; type: functional, organism-based
[36] = test system: MOLM-13; assay: In vivo inhibition of Mcl-1 in human MOLM-13 cells sc implanted in NSG mouse assessed as disruption of Mcl-1/Bim complex in tumor at 10 mg/kg, po; type: functional, organism-based
[37] = Toxicity in NSG mouse xenografted with human MOLM-13 cells at 10 mg/kg, po; type: organism-based; details: in vivo

**Q.** What does the source list for `COc1nn(C)cc1C(=O)N[S@@]1(=O)=NC(=O)c2ccc3c(c2)N(C[C@@H]2CCO[C@H]2[C@@H](OC)/C(F)=C/C[C@H](C)C1)C[C@@]1(CCCc2cc(Cl)ccc21)CO3`?
**A.** Ki [1]: 0.011 nM; AC50 [2]: 44 nM; solubility thermodynamic at 72 h [3]: < 0.1 µM; solubility thermodynamic at 72 h [4]: 520 µM (≈ 401 µg/mL); chromatographic logD [5]: 3; microsomal CLint [6]: < 7.7 µL/min/mg; microsomal CLint [7]: 15 µL/min/mg; Activity [8]: Non-Toxic; Activity [9]: Non-Toxic; hepatocyte CLint at 1 µM [10]: 1.99 µL/min/1e6 cells; hepatocyte CLint at 1 µM [11]: < 1.24 µL/min/1e6 cells; t1/2 [12]: 5.8 h; half-life at 1 µM [13]: > 9.33 h; IC50 [14]: 5010 nM; fold induction at 10 µM [15]: 4.4; fold induction at 1 µM [16]: 0.95; fold induction at 1 µM [17]: 1.3; Fu [18]: 0.05%; Fu [19]: 0.02%; Activity [20]: Non-Toxic; Activity [21]: Non-Toxic; inhibition (INH) [22]: Not Active; inhibition (INH) [23]: Not Active; inhibition (INH) [24]: Not Active; inhibition (INH) [25]: Not Active; half-life [26]: 1.81 h; C0 [27]: 574 ng/mL; Vd [28]: 3.01 L/kg; clearance [29]: 25 mL/min/kg; Tmax [30]: 2.33 h; Cmax [31]: 578 ng/mL; AUC(0-t) [32]: 2520 ng·h/mL; bioavailability [33]: 78%; Fa [34]: 99%; inhibition [35]: Active; inhibition [36]: Active; Activity [37]: Non-Toxic
